One compound from patent publication US8859743B2, “Controlling microbial contamination in alcoholic fermentation process” (Arch Chemicals, Inc., priority 2009, dated 2014) can be followed below.

Format in all cases: cell-based
The subject of one assay is Lactobacilli. Nature of the assay: Count of Lactobacilli in treated fermentative must (MRS).
The subject of the next assay is Wild yeast. Nature of the assay: Count of wild yeast in treated fermentative must (WLN+).
In a further assay the test system is Saccharomyces cerevisiae. Put plainly: Count of fermentative yeast in treated fermentative must (WLN).
The next assay concerns bacteria. Nature of the assay: Count of other bacteria in treated fermentative must (TSA).
Setting [1] is: in relation to the control sample 4.

As for `CC[C@@]1([C@@H]2O[C@@H]([C@H]3O[C@@](O)(CO)[C@H](C)C[C@@H]3C)C[C@@H]2C)CC[C@H]([C@]2(C)CC[C@]3(C[C@H](O)[C@@H](C)[C@@H]([C@@H](C)[C@@H](OC)[C@H](C)C(=O)O)O3)O2)O1` [Sample 01, monensin], in the assay with Lactobacilli (fermentative must after treatment, blank 3.1 × 10^6), the “MRS UFC/mL Lactobacilli” value is recorded as 2.5 × 10^2 UFC/mL. Moreover, in the assay with Lactobacilli (setting [1]), the “reduction in the Lactobacilli” value is “about 4 log”. Moreover, the “WLN+ UFC/mL Wild yeast” value with Wild yeast (fermentative must after treatment, blank 9.5 × 10^6) is on record as 2 × 10^4 UFC/mL. Further, in the assay with Wild yeast (setting [1]), the “reduction in the wild yeast” value is on record as “about 3 log”. In addition, the “WLN UFC/mL Saccharomyces cerevisiae” value in the assay with Saccharomyces cerevisiae (fermentative must after treatment, blank 1.3 × 10^6) is 1 × 10^5 UFC/mL. The “reduction in the fermentative yeast” value in the assay with Saccharomyces cerevisiae (setting [1]) is reported as “about 1 log”. Also, the “TSA UFC/mL bacteria” value in the assay with bacteria (fermentative must after treatment, blank 6 × 10^5) is listed as 7 × 10^3 UFC/mL. Moreover, in the assay with bacteria (setting [1]), the “reduction in other bacteria” value is given as “about 2 log”.
